{
  "source": "patent US20030119846A1",
  "about": "“Compounds with 5-ht activity useful for controlling visual field loss” (priority 2000, published 2003)",
  "key": {"[1]": {"tested_on": "retina (photo-oxidative injury)", "assay": "Neuroprotective effects in the acute blue-light damage model in the rat (ERG)", "assay_type": "in vivo, Sprague Dawley rats", "conditions": "for A-wave Amplitude Mean / B-wave Amplitude Mean: ERG after 5-day recovery", "protocol": "Male Sprague Dawley rats were randomly assigned to vehicle treatment (N=15) or drug treatment (0.5 mg/kg [N=5] or 1 mg/kg [N=15]) experimental groups. Xaliproden hydrochloride or vehicle was administered by intraperitonal (IP) injection at 48, 24, and 0 hours prior to light exposure. Photo-oxidative injury to the retina was induced in dark-adapted rats (24 hours) by a 6-hour blue-light exposure (220 fc). Control rats (N=11) were housed in their home cage under normal cyclic light exposure. Rats were single housed in clear polycarbonate cages during this light exposure.\nThe electroretinogram (ERG) was recorded after a five day recovery period from dark-adapted anesthetized rats (Ketamine-HCl, 75 mg/Kg; Xylazine, 6 mg/Kg). The eye's electrical response to a flash of light was elicited by viewing a ganzfeld. ERGs to a series of light flashes increasing in intensity were digitized to analyze temporal characteristics of the waveform and determine the response voltage-log intensity (VlogI) relationship. Changes in the ERG a-wave are associated with photoreceptor and retinal pigment epithelium damage while damage to the inner retina is reflected in changes in the ERG b-wave."}, "[2]": {"biological_target": "T1, human cloned 5-HT1A receptors (Homo sapiens, UniProt P08908)", "T1 construct": "purchased NEN (manufactured by Biosignal, Inc., Montreal, Canada); host or cells: CHO cells", "T1 sequence (P08908 1-422)": "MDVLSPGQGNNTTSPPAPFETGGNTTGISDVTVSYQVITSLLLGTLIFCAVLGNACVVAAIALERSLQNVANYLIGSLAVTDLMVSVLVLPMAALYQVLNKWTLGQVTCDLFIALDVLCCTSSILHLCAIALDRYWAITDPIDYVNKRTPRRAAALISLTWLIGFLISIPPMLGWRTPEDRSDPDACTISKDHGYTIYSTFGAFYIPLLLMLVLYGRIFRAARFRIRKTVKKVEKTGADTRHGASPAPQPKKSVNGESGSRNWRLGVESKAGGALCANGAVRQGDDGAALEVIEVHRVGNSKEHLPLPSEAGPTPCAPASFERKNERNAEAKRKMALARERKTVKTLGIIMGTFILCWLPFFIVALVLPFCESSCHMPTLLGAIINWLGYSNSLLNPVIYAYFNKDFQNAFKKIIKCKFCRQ", "assay": "5-HT1A Receptor Binding Assay ([3H]8-OH-DPAT, CHO cell membranes)", "conditions": "0.25 nM [3H]8-OH-DPAT, 27° C., 1 h; read-out: Receptor Binding (IC50 nM, SEM)", "protocol": "5-HT1A binding studies were performed with human cloned receptors expressed in Chinese hamster ovary (CHO) cells using (^3H)8-OH DPAT as the ligand. Membranes from Chinese hamster ovary cells (CHO) expressing cloned 5-HT1A receptors (manufactured for NEN by Biosignal, Inc., Montreal, Canada) were homogenized in approximately 40 volumes of 50 mM Tris pH 7.4 for 5 sec. Drug dilutions were made using a Beckman Biomek 2000 robot (Beckman Instruments, Fullerton, Calif.). Incubations were conducted with membrane prep, test compounds, and 0.25 nM [^3H]8-OH-DPAT (NEN, Boston, Mass.) in the same buffer at 27° C. for 1 h. Assays were terminated by rapid vacuum filtration over Whatman GF/B glass fiber filters pre-soaked in 0.3% polyethyleneimine. Bound radioactivity was measured using liquid scintillation spectrometry. Data were analyzed using non-linear curve fitting programs (Sharif et al., J. Pharmac. Pharmacol. 51:685-694, 1999).\nLigand binding studies can also be run using membrane preparations from calf and rat brain (local source) and human cortex membranes. Specific brain regions were dissected out, homogenized in 10 volumes of 0.32 M sucrose and centrifuged for 10 min at 700×g. […] Ki values were calculated using the Cheng-Prusoff equation (De Vry et al., J. Pharm. Exper. Ther. 284:1082-1094, 1998.)"}, "5-HT1A receptors": {"biological_target": "T2, 5-HT1A receptors (UniProt P08908)", "T2 sequence (P08908 1-422)": "T1 sequence (P08908 1-422)", "assay": "5-HT1A Functional Assay (cAMP inhibition, forskolin-stimulated adenylate cyclase)", "conditions": "read-out: cAMP Inhibition (EC50)", "quoted_text": "HeLa cells transfected with recombinant human 5-HT1A receptors were grown to confluence in 24-well plates. The cells were rinsed with 1 ml of Hepes-buffered saline (in MM) NaCl 130, KCl 5.4, CaCl2, 1.8, MgSO4 0.8, NaH2PO4 0.9, glucose 25, Hepes 20, pH 7.4, and phenol red 5 mg/l. The cells were labelled with 6 μCi/ml of [^2-3H]adenine (23 Ci/mmol, Amersham, Rahn AG, Zurich, Switzerland) in 0.5 ml of saline at 37 ° C. for 2 hr. The plates were subsequently rinsed twice with 1 ml of buffered saline containing 1 mM isobutylmethylxanthine. The cells were incubated for 15 min in 1 ml of this solution (37° C.) in the presence or absence of 10 μM forskolin and the test compound. The buffer was then removed and 1 ml of 5% trichloroacetic acid (TCA) containing 0.1 mM cAMP and 0.1 mM ATP was added to extract the samples. […] Cyclic AMP production was calculated as the ratio [^3H]cAMP/([^3H]cAMP+[^3H]ATP)."}, "[3]": {"conditions": "0.5 mg/kg IP at 48, 24, 0 h before 6-hour blue-light exposure"}, "[4]": {"conditions": "1.0 mg/kg IP at 48, 24, 0 h before 6-hour blue-light exposure"}},
  "note": "Where a name gives a salt, the structure may show the parent alone.",
  "data": [
    {"compound": "FC(F)(F)c1cccc(C2=CCN(CCc3ccc4ccccc4c3)CC2)c1", "note": "[SR-57746A, xaliproden hydrochloride]", "values": [
      {"measurement": "A-wave Amplitude Mean", "setting": "[1]; [3]", "value": 550.5, "unit": "μV"},
      {"measurement": "B-wave Amplitude Mean", "setting": "[1]; [3]", "value": 1361.1, "unit": "μV"},
      {"measurement": "Maximum a- and b-wave response amplitudes, % of controls", "setting": "[1]; 0.5 mg/kg, light-exposed rats", "value": 82, "unit": "%"},
      {"measurement": "A-wave Amplitude Mean", "setting": "[1]; [4]", "value": 460.8, "unit": "μV"},
      {"measurement": "B-wave Amplitude Mean", "setting": "[1]; [4]", "value": 1169.4, "unit": "μV"},
      {"measurement": "Maximum a- and b-wave response amplitudes, % of normal", "setting": "[1]; 1 mg/kg, light-exposed rats", "value": 70, "unit": "%"},
      {"measurement": "Protection of retinal function", "setting": "[1]; 0.5 and 1.0 mg/kg, light-exposed rats", "value": "Significant protection of retinal function"},
      {"measurement": "IC50", "setting": "[2]", "value": 2.5, "unit": "nM"},
      {"measurement": "EC50", "setting": "5-HT1A receptors", "value": 3.7, "unit": "nM"}
    ]}
  ]
}
